In brackets after ≈: the same amount, converted by molar mass. Values belong to the compound of their own block, whether it stands above or below them.
How the values were obtained:
[1] = test system: Staphylococcus aureus (S. aureus F-1924); assay: MIC against Staphylococcus aureus, agar dilution; assay type: cell-based; settings: Mueller Hinton agar, 37° C., 20 hours, read-out: MIC (lowest concentration which inhibited visible growth of the cells)
Procedure: According to the standard method of Japan Chemotherapy Society [CHEMOTHERAPY, Vol. 29, No. 1, p. 76-79 (1981)], Staphylococcus aureus (S. aureus F-1924) was cultivated in Mueller Hinton broth [manufactured by Difco] at 37° C. for 20 hours and the cell density was adjusted to 10^6 cells/plate (10^8 cells/ml). A loopful of the bacterial suspension was inoculated on Mueller Hinton agar medium [manufactured by Difco] and incubated at 37° C. for 20 hours. Whether or not the growth of cells occurred was observed and MIC (μg/ml) was defined as the lowest concentration which inhibited visible growth of the cells.

ddy male mice [2] = assay: Micronucleus test; assay type: in vivo; settings: intraperitoneally at 500 mg/Kg
Procedure: According to the description in Dokusei Shiken Koza 12 (Chijinshokan, 1991), pages 147-153, micronucleus test was carried out using ddy male mice. As a result, the compounds (a), (c), (d) and (g) were negative when administered intraperitoneally at 500 mg/Kg.

ddy male mice [3] = assay: Acute toxicity; assay type: in vivo; settings: three ddy male mice; intraperitoneally 500 mg/Kg
Procedure: Three ddy male mice were intraperitoneally administered with 500 mg/Kg of (a), (b), (d) or (g).

- MIC [1]: 0.39 mg/L (≈ 1.17 µM)
SMILES: Cc1ccc(-c2ccc3c(=O)c(C(=O)O)cn(C4CC4)c3c2C)cn1 [c, 1-Cyclopropyl-7-(6-methyl-3-pyridyl)-8-methyl-4-oxo-1,4-dihydro-3-quinolinecarboxylic acid]
- Micronucleus test result (ddy male mice [2]): negative

- MIC [1]: 0.39 mg/L (≈ 1.07 µM)
SMILES: COc1c(-c2cnc(N)c(C)c2)ccc2c(=O)c(C(=O)O)cn(C3CC3)c12 [f, 7-(6-Amino-5-methyl-3-pyridyl)-1-cyclopropyl-8-methoxy-4-oxo-1,4-dihydro-3-quinolinecarboxylic acid]

- MIC [1]: 0.2 mg/L (≈ 0.552 µM)
SMILES: Cc1cc(-c2cc(C)c3c(=O)c(C(=O)O)cn(C4CC4)c3c2C)cc(C)n1 [i, 1-Cyclopropyl-7-(2,6-dimethyl-4-pyridyl)-5,8-dimethyl-4-oxo-1,4-dihydro-3-quinolinecarboxylic acid]

- MIC [1]: 0.39 mg/L (≈ 1.07 µM)
SMILES: Cc1cc(-c2cc(N)c3c(=O)c(C(=O)O)cn(C4CC4)c3c2C)cnc1C [j, 5-Amino-1-cyclopropyl-7-(5,6-dimethyl-3-pyridyl)-8-methyl-4-oxo-1,4-dihydro-3-quinolinecarboxylic acid]

Continued, compound first:

SMILES: CC1CCc2c(N3CCC(O)CC3)c(F)cc3c(=O)c(C(=O)O)cn1c23 (racemic) [k, (±)-9-Fluoro-6,7-dihydro-8-(4-hydroxy-1-piperidinyl)-5-methyl-1-oxo-1-1H,5H-benzo[i,j]quinolizine-2-carboxylic acid, reference compound]
- MIC [1]: 1.56 mg/L (≈ 4.33 µM)

SMILES: Cc1cc(-c2ccc3c(=O)c(C(=O)O)cn(C4CC4)c3c2C)cc(C)n1 [a, 1-Cyclopropyl-7-(2,6-dimethyl-4-pyridyl)-8-methyl-4-oxo-1,4-dihydro-3-quinolinecarboxylic acid]
- MIC [1]: 0.2 mg/L (≈ 0.574 µM)
- Micronucleus test result (ddy male mice [2]): negative
- Acute toxicity (death of animals) (ddy male mice [3]): In no case, the animals were dead

SMILES: Cc1cc(-c2ccc3c(=O)c(C(=O)O)cn(C4CC4)c3c2C)cc(CO)n1 [b, 1-Cyclopropyl-7-(2-hydroxymethyl-6-methyl-4-pyridyl)-8-methyl-4-oxo-1,4-dihydro-3-quinolinecarboxylic acid]
- MIC [1]: 0.39 mg/L (≈ 1.07 µM)
- Acute toxicity (death of animals) (ddy male mice [3]): In no case, the animals were dead

SMILES: CNc1ncc(-c2ccc3c(=O)c(C(=O)O)cn(C4CC4)c3c2C)cc1C [d, 1-Cyclopropyl-8-methyl-7-[5-methyl-6-(methylamino)-3-pyridyl]-4-oxo-1,4-dihydro-3-quinolinecarboxylic acid]
- MIC [1]: 0.2 mg/L (≈ 0.55 µM)
- Micronucleus test result (ddy male mice [2]): negative
- Acute toxicity (death of animals) (ddy male mice [3]): In no case, the animals were dead

SMILES: Cc1cc(-c2ccc3c(=O)c(C(=O)O)cn(C4CC4)c3c2OC(F)F)cnc1N [e, 7-(6-Amino-5-methyl-3-pyridyl)-1-cyclopropyl-8-(difluoromethoxy)-4-oxo-1,4-dihydro-3-quinolinecarboxylic acid]
- MIC [1]: 0.78 mg/L (≈ 1.94 µM)

SMILES: Cc1cc(-c2ccc3c(=O)c(C(=O)O)cn(C4CC4)c3c2C)cnc1N [g, 7-(6-Amino-5-methyl-3-pyridyl)-1-cyclopropyl-8-methyl-4-oxo-1,4-dihydro-3-quinolinecarboxylic acid]
- MIC [1]: 0.1 mg/L (≈ 0.286 µM)
- Micronucleus test result (ddy male mice [2]): negative
- Acute toxicity (death of animals) (ddy male mice [3]): In no case, the animals were dead

SMILES: Cc1c(-c2ccc(N)nc2)ccc2c(=O)c(C(=O)O)cn(C3CC3)c12 [h, 7-(6-Amino-3-pyridyl)-1-cyclopropyl-8-methyl-4-oxo-1,4-dihydro-3-quinolinecarboxylic acid]
- MIC [1]: 0.1 mg/L (≈ 0.298 µM)

Source: US6335447B1, “Quinolonecarboxylic acid derivatives or salts thereof” (Toyama Chemical Co., Ltd., priority 1998, dated 2002)
